Our source for the IC50 values is patent US10752609B2, “GSK-3 inhibitors” (priority 2016, dated 2020).

The term IC50 denotes the midpoint of a concentration-inhibition curve.

For one assay, the system named is pTau. Nature of the assay: pTau assay (no method described). Type of assay: cell-based.
The target of the next assay is GSK3β (Homo sapiens, UniProt P49841). Nature of the assay: GSK3β kinase assay (Caliper LabChip3000 mobility shift, fluoresceinated peptide substrate). Type of assay: biochemical. To be noted: 250 pM enzyme, 20 uM ATP, 1.5 uM peptide, 20 hours room temperature; first value of cell GSK3β/GSK3α; read-out: GSK3β (nM), IC50.
Sequence of GSK3β (P49841 whole entry, species assumed): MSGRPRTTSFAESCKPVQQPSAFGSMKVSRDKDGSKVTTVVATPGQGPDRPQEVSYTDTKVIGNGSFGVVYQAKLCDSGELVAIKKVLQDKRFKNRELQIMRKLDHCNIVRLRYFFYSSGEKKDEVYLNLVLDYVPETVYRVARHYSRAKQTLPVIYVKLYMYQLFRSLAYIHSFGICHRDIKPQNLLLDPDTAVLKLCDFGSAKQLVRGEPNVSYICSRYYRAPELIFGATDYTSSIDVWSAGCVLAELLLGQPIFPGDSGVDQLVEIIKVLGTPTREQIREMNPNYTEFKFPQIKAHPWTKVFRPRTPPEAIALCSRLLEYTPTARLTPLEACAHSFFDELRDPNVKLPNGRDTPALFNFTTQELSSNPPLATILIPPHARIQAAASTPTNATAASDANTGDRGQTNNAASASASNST
The target in the next assay is GSK3α (Homo sapiens, UniProt P49840). Nature of the assay: GSK3α kinase assay (Caliper LabChip3000 mobility shift, fluoresceinated peptide substrate).
Sequence of GSK3α (P49840 whole entry, species assumed): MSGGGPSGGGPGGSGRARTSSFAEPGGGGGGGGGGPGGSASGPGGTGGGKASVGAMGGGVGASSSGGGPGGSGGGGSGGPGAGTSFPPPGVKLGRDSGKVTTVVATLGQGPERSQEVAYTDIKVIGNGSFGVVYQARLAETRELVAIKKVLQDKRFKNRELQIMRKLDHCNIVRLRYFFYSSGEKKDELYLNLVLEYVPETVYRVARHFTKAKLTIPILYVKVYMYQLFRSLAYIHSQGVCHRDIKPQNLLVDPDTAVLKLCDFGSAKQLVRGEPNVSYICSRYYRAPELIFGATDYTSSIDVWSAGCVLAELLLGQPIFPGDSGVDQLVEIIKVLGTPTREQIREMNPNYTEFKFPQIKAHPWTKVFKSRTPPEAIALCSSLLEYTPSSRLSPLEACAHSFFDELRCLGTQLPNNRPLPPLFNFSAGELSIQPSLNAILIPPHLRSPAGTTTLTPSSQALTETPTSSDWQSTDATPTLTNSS

Description for GSK3α: The kinase assay was performed in V-bottom 384-well plates. […] The reaction was incubated at room temperature for 20 hours and terminated by adding 45 μl of 35 mM EDTA to each sample. The reaction mixture was analyzed on the Caliper LabChip3000 (Caliper, Hopkinton, Mass.) by electrophoretic separation of the unphosphorylated substrate and phosphorylated product. […] Compounds were dissolved at 10 mM in dimethylsulfoxide (DMSO) and evaluated at eleven concentrations. IC50 values were derived by non-linear regression analysis.

Take `CC1CC(Nc2nccc(C(=O)Nc3cnccc3OCC(F)(F)F)n2)CC(C)O1` (stereo not shown) [Example 133, 2-((2,6-Dimethyltetrahydro-2H-pyran-4-yl)amino)-N-(4-(2,2,2-trifluoroethoxy)pyridin-3-yl)pyrimidine-4-carboxamide]: the IC50 in the assay with pTau was determined as 380 nM; at GSK3β, 1.9 nM; on GSK3α, 38 nM.

Take `O=C(Nc1cnccc1OCC(F)(F)F)c1ccnc(NC2CCCCC2)n1` [Example 117, 2-(Cyclohexylamino)-N-(4-(2,2,2-trifluoroethoxy)pyridin-3-yl)pyrimidine-4-carboxamide]: the IC50 with pTau came to 28 nM; on GSK3β it was 0.25 nM; on GSK3α it was 0.21 nM.

With `O=C(Nc1cncnc1OCC(F)(F)F)c1ccnc(Nc2ccc(OC(F)F)nc2)n1` [Example 73, 2-((6-(Difluoromethoxy)pyridin-3-yl)amino)-N-(4-(2,2,2-trifluoroethoxy)pyrimidin-5-yl)pyrimidine-4-carboxamide], the IC50 in the assay on pTau was determined as 22 nM; at GSK3β it was 0.26 nM; at GSK3α, 0.18 nM.

`O=C(Nc1cnccc1OCC(F)(F)F)c1ccnc(Nc2ccc3ccccc3c2)n1` [Example 115, 2-(Naphthalen-2-ylamino)-N-(4-(2,2,2-trifluoroethoxy)pyridin-3-yl)pyrimidine-4-carboxamide] showed an IC50 with pTau of 23 nM.

As to `O=C(Nc1cncnc1OCC(F)(F)F)c1ccnc(Nc2ccc(C(F)(F)F)cc2)n1` [Example 68, N-(4-(2,2,2-Trifluoroethoxy)pyrimidin-5-yl)-2-((4-(trifluoromethyl)phenyl)amino)pyrimidine-4-carboxamide], the IC50 in the assay with pTau came out at 90 nM; on GSK3β, 0.73 nM; at GSK3α, 1.3 nM.

`Cc1ccc(Nc2nccc(C(=O)Nc3cnccc3OCC(F)(F)F)n2)cn1` [Example 83, 2-((6-Methylpyridin-3-yl)amino)-N-(4-(2,2,2-trifluoroethoxy)pyridin-3-yl)pyrimidine-4-carboxamide]: the IC50 with pTau came out at 5.1 nM; at GSK3β, 0.22 nM; on GSK3α, 0.16 nM.

In the case of `O=C(Nc1cnccc1OCC(F)(F)F)c1ccnc(NCc2ccc(C(F)(F)F)cc2)n1` [Example 134, N-(4-(2,2,2-Trifluoroethoxy)pyridin-3-yl)-2-((4-(trifluoromethyl)benzyl)amino)pyrimidine-4-carboxamide], the IC50 with pTau was found to be 310 nM; at GSK3β, 2.8 nM; at GSK3α, 5.4 nM.

`O=C(Nc1cnc(F)cc1N1CCOCC1)c1ccnc(Nc2cccc(Cl)c2)n1` [Example 168]: the IC50 with pTau is 21 nM; on GSK3β, 0.17 nM; at GSK3α it was 0.2 nM.

On to `COc1ccc(Nc2nccc(C(=O)Nc3cnccc3-c3ccccc3)n2)cc1Cl` [Example 18, 2-((3-Chloro-4-methoxyphenyl)amino)-N-(4-phenylpyridin-3-yl)pyrimidine-4-carboxamide], for which the IC50 in the assay with pTau was 37 nM; on GSK3β it was 0.23 nM; at GSK3α, 0.32 nM.

Turning to `O=C(Nc1cncnc1)c1ccnc(NCC2CC2c2ccc(F)cc2)n1` (stereo not shown) [Example 198, 2-(((2-(4-Fluorophenyl)cyclopropyl)methyl)amino)-N-(pyrimidin-5-yl)pyrimidine-4-carboxamide], the IC50 in the assay with pTau turned out to be 6500 nM; on GSK3β, 35 nM; at GSK3α, 28 nM.

For `O=C(Nc1cnc(F)cc1N1CCC(F)(F)CC1)c1ccnc(NC2CCOCC2)n1` [Example 184, N-(4-(4,4-Difluoropiperidin-1-yl)-6-fluoropyridin-3-yl)-2-((tetrahydro-2H-pyran-4-yl)amino)pyrimidine-4-carboxamide], the IC50 is 400 nM with pTau, 11 nM at GSK3β and 6 nM on GSK3α.

Take `O=C(Nc1cnccc1-c1ccc(F)cc1)c1ccnc(Nc2ccc(OC(F)F)nc2)n1` [Example 50, 2-((6-(Difluoromethoxy)pyridin-3-yl)amino)-N-(4-(4-fluorophenyl)pyridin-3-yl)pyrimidine-4-carboxamide]: the IC50 in the assay with pTau came out at 180 nM; on GSK3β it was 4 nM; at GSK3α, 1.5 nM.

As to `O=C(Nc1cncnc1OCC(F)(F)F)c1ccnc(NCC2CC2)n1` [Example 192, 2-((Cyclopropylmethyl)amino)-N-(4-(2,2,2-trifluoroethoxy)pyrimidin-5-yl)pyrimidine-4-carboxamide], the IC50 in the assay on pTau is 480 nM; at GSK3β it was 4.8 nM; at GSK3α, 4.8 nM.

For the compound `O=C(Nc1cnccc1-c1ccccc1)c1ccnc(Nc2cnns2)n1` [Example 101, 2-((1,2,3-Thiadiazol-5-yl)amino)-N-(4-phenylpyridin-3-yl)pyrimidine-4-carboxamide], the IC50 with pTau was determined as 9000 nM; at GSK3β, 100 nM; on GSK3α, 42 nM.

For the compound `O=C(Nc1cnccc1OCC(F)(F)F)c1ccnc(Nc2ccc(C(F)(F)F)nc2)n1` [Example 64, N-(4-(2,2,2-Trifluoroethoxy)pyridin-3-yl)-2-((6-(trifluoromethyl)pyridin-3-yl)amino)pyrimidine-4-carboxamide], the figures for the IC50 in the assay with pTau, on GSK3β and at GSK3α were 8.5 nM, 0.2 nM and 0.19 nM, respectively.

Regarding `O=C(Nc1cnc(F)cc1N1CCC(F)(F)CC1)c1ccnc(Nc2ccc(C(F)(F)F)cc2)n1` [Example 183, N-(4-(4,4-Difluoropiperidin-1-yl)-6-fluoropyridin-3-yl)-2-((4-(trifluoromethyl)phenyl)amino)pyrimidine-4-carboxamide], the IC50 on GSK3β was 2.9 nM; on GSK3α, 3.1 nM.

In turn, `O=C(Nc1cnccc1OCC(F)(F)F)c1ccnc(Nc2ccc(OC(F)F)cc2)n1` [Example 60, 2-((4-(Difluoromethoxy)phenyl)amino)-N-(4-(2,2,2-trifluoroethoxy)pyridin-3-yl)pyrimidine-4-carboxamide] returned an IC50 with pTau of 5.5 nM.

In the case of `N#Cc1ccc(Nc2nccc(C(=O)Nc3cnccc3-c3ccccc3)n2)c(F)c1` [Example 22, 2-((4-Cyano-2-fluorophenyl)amino)-N-(4-phenylpyridin-3-yl)pyrimidine-4-carboxamide], the IC50 on GSK3β turned out to be 0.31 nM; on GSK3α, 0.21 nM.

As to `Cc1ccc(NC(=O)c2ccnc(N)n2)cn1` [Example 1, 2-Amino-N-(6-methylpyridin-3-yl)pyrimidine-4-carboxamide], the IC50 with pTau amounted to 10000 nM; on GSK3β, 57 nM.

The compound `CC(Nc1nccc(C(=O)Nc2cnccc2OCC(F)(F)F)n1)c1cc(F)cc(F)c1` (stereo not shown) [Example 146, 2-((1-(3,5-Difluorophenyl)ethyl)amino)-N-(4-(2,2,2-trifluoroethoxy)pyridin-3-yl)pyrimidine-4-carboxamide] showed a concentration for half-maximal inhibition (IC50) in the assay on pTau of 320 nM.

`O=C(Nc1cncnc1OCC(F)(F)F)c1ccnc(Nc2ccc(OC(F)F)cc2)n1` [Example 70, 2-((4-(Difluoromethoxy)phenyl)amino)-N-(4-(2,2,2-trifluoroethoxy)pyrimidin-5-yl)pyrimidine-4-carboxamide] showed an IC50 with pTau of 52 nM.

On to `O=C(Nc1cnccc1-c1ccc(F)cc1)c1ccnc(Nc2ccccn2)n1` [Example 161, N-(4-(4-Fluorophenyl)pyridin-3-yl)-2-(pyridin-2-ylamino)pyrimidine-4-carboxamide], for which the IC50 on GSK3β stood at 22 nM; on GSK3α, 20 nM.

`O=C(Nc1cncnc1)c1ccnc(Nc2cccc(-c3ccccc3)n2)n1` [Example 195, 2-((6-Phenylpyridin-2-yl)amino)-N-(pyrimidin-5-yl)pyrimidine-4-carboxamide]: the values for the IC50 on GSK3β and at GSK3α were 8.9 nM and 7.2 nM, respectively.

With `CC(C)(C)C1CCC(Nc2nccc(C(=O)Nc3cnccc3-c3ccccc3F)n2)CC1` (stereo not shown) [Example 160, 2-((4-(tert-Butyl)cyclohexyl)amino)-N-(4-(2-fluorophenyl)pyridin-3-yl)pyrimidine-4-carboxamide], the IC50 in the assay with pTau stood at 4900 nM; on GSK3β, 15 nM.

Consider `O=C(Nc1cnccc1OCC(F)(F)F)c1ccnc(NC2CCC2)n1` [Example 119, 2-(Cyclobutylamino)-N-(4-(2,2,2-trifluoroethoxy)pyridin-3-yl)pyrimidine-4-carboxamide], for which the IC50 with pTau amounted to 20 nM; on GSK3β, 0.34 nM.

On to `CC(C)Nc1nccc(C(=O)Nc2cnccc2-c2ccc(F)cc2)n1` [Example 152, N-(4-(4-Fluorophenyl)pyridin-3-yl)-2-(isopropylamino)pyrimidine-4-carboxamide], for which the IC50 in the assay with pTau was determined as 62 nM; at GSK3β, 0.71 nM.

Consider `O=C(Nc1cnc(F)cc1OCC(F)(F)F)c1ccnc(NC2CCC2)n1` [Example 127, 2-(Cyclobutylamino)-N-(6-fluoro-4-(2,2,2-trifluoroethoxy)pyridin-3-yl)pyrimidine-4-carboxamide], for which the IC50 in the assay on pTau amounted to 140 nM; at GSK3β, 1.2 nM.

As to `O=C(Nc1cnccc1OCC(F)(F)F)c1ccnc(Nc2cccc3ccccc23)n1` [Example 112, 2-(Naphthalen-1-ylamino)-N-(4-(2,2,2-trifluoroethoxy)pyridin-3-yl)pyrimidine-4-carboxamide], the IC50 at GSK3β worked out at 3.6 nM; at GSK3α it was 2.1 nM.

Regarding `O=C(Nc1cnccc1OCC(F)(F)F)c1ccnc(Nc2cnn(-c3cc(F)ccc3F)c2)n1` [Example 108, 2-((1-(2,5-Difluorophenyl)-1H-pyrazol-4-yl)amino)-N-(4-(2,2,2-trifluoroethoxy)pyridin-3-yl)pyrimidine-4-carboxamide], the IC50 was determined as 0.24 nM on GSK3β and 0.17 nM at GSK3α.

For the compound `CC(C)Nc1nccc(C(=O)Nc2cnc(F)cc2OCC(F)(F)F)n1` [Example 136, N-(6-Fluoro-4-(2,2,2-trifluoroethoxy)pyridin-3-yl)-2-(isopropylamino)pyrimidine-4-carboxamide], the IC50 with pTau is 320 nM; at GSK3β it was 3.7 nM.
